Laboratory results: patent US9145415B2, “Nitrogen-containing heterocyclic compound or salt thereof” (FUJIFILM Corporation, priority 2012, dated 2015)
Like-named read-outs stand apart in the source and are kept apart here.

Columns and labels:
Molm-13 cells = experiment: Leukemia cell proliferation inhibition test (ATPlite), Molm-13; format: cell-based; settings: Molm-13, 72 hours culture, ATPlite, GI50 per method, read-out: MOLM13 cell proliferation inhibition effect
Outline: (§1)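 72 h proliferation, 37° C/5% CO2; 10,000 cells/well, RPMI/10% FBS; ATPlite luminescence (RLU); 0.1% DMSO taken as 0% inhibition; GI50 via sigmoid fit, n=2.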

MV4-11 cells = experiment: Leukemia cell proliferation inhibition test (ATPlite), MV4-11; format: cell-based; settings: MV4-11, 72 hours culture, ATPlite, GI50 per method, read-out: MV4-11 cell proliferation inhibition effect
Outline: as §1

[1] = target: T1, human FLT3 protein (FLT3 (WT)) (Homo sapiens, UniProt P36888); experiment: FLT3 inhibition test (FLT3 enzyme inhibition, time-resolved fluorescence of substrate peptide phosphorylation); format: biochemical; settings: GST-fused human FLT3 (564 to 993 aa), ATP 50 μM; read-out: FLT3 (WT) enzyme inhibition activity
T1 construct: human FLT3 protein (intracellular region, 564 to 993 aa); GST; purchased Carna Biosciences; host or cells: baculovirus expression system
T1 sequence (P36888 564-993): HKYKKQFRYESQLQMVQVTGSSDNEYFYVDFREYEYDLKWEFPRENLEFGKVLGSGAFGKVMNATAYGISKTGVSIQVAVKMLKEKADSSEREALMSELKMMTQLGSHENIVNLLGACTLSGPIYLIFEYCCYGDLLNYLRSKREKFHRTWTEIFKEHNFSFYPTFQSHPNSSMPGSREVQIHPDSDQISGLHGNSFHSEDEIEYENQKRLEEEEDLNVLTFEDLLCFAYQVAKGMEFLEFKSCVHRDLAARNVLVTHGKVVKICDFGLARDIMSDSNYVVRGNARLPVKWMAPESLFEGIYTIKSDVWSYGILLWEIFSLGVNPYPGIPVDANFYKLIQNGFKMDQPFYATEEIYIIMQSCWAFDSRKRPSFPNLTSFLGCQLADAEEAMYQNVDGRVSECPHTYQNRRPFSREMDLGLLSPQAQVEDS
Outline: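 Substrate peptide phosphorylation detected by time-resolved fluorescence after a 30 min kinase reaction at 25° C with 50 μM ATP (final). Beforehand, compound and FLT3 (WT, 1.2 μg) stood 15 min at 25° C in HEPES buffer pH 7.5 containing MgCl2, NaCl, BSA and DTT.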

Row | Compound | IC50 (Molm-13 cells; Homo sapiens, MOLM-13, 72 h) [µM] | IC50 (MV4-11 cells; Homo sapiens, MV4-11, 72 h) [µM] | IC50 [1] [µM] | IC50 (Molm-13 cells) [µM] | IC50 (MV4-11 cells) [µM]
1 | CNc1nc(Nc2ccc(F)cc2)ncc1C#CCCCNC(=O)[C@@H]1C[C@@H](O)CN1C(=O)/C=C/CN(C)C [Compound 7-85] | < 0.01 | < 0.01 | < 0.01 |  | 
2 | CNc1nc(Nc2ccc(F)cc2)ncc1C#CCCCNC(=O)[C@@H]1CCN1C(=O)/C=C/CN(C)C [Compound 7-86, (S,E)-1-(4-(Dimethylamino)-2-butenoyl)-N-(5-(2-((4-fluorophenyl)amino)-4-(methylamino)pyrimidin-5-yl)-4-pentyn-1-yl)azetidine-2-carboxamide] | < 0.01 | < 0.01 | < 0.01 |  | 
3 | CNc1nc(Nc2ccc(C#N)cc2)ncc1C#CCCCNC(=O)[C@@H]1C[C@H](F)CN1C(=O)/C=C/CN(C)C [Compound 7-87, (2S,4S)—N-(5-(2-((4-Cyanophenyl)amino)-4-(methylamino)pyrimidin-5-yl)-4-pentyn-1-yl)-1-((E)-4-(dimethylamino)-2-butenoyl)-4-fluoropyrrolidine-2-carboxamide] | < 0.01 | < 0.01 | < 0.01 |  | 
4 | CNc1nc(Nc2ccc(C#N)cc2)ncc1C#CCCCNC(=O)CN(C)C(=O)/C=C/CN(C)C [Compound 7-88, (E)-N-(2-((5-(2-((4-Cyanophenyl)amino)-4-(methylamino)pyrimidin-5-yl)-4-pentyn-1-yl)amino)-2-oxoethyl)-4-(dimethylamino)-N-methyl-2-butenamide] | < 0.01 | < 0.01 | < 0.01 |  | 
5 | CNc1nc(Nc2ccc(F)cc2)ncc1C#CCCCNC(=O)CN(C)C(=O)/C=C/CN(C)C [Compound 7-89] | < 0.01 | < 0.01 | < 0.01 |  | 
6 | CCCNc1nc(Nc2ccc(C#N)cc2)ncc1C#CCNC(=O)CCNC(=O)/C=C/CN(C)C [Compound 7-90] | 0.1 to 1 | 0.1 to 1 | < 0.01 |  | 
7 | CCCNc1nc(Nc2ccc(C#N)cc2)ncc1C#CCNC(=O)CCCNC(=O)/C=C/CN(C)C [Compound 7-91] | 0.1 to 1 | 0.1 to 1 | < 0.01 |  | 
8 | CNc1nc(Nc2ccc(F)cc2)ncc1C#CCCCNC(=O)[C@@H]1C[C@H](C)CN1C(=O)/C=C/CN(C)C [Compound 7-92] | < 0.01 | < 0.01 | < 0.01 |  | 
9 | CNc1nc(Nc2ccc(F)cc2)ncc1C#CCCCNC(=O)[C@@H]1CC(F)(F)CN1C(=O)/C=C/CN(C)C [Compound 7-93] | < 0.01 | < 0.01 | < 0.01 |  | 
10 | CCCNc1nc(Nc2cccc(F)c2)ncc1C#CCCCNC(=O)[C@H]1CCCN1C(=O)/C=C/CN(C)C [Compound 7-94] | 0.01 to 0.1 | 0.01 to 0.1 | 0.01 to 0.1 |  | 
11 | CCCNc1nc(Nc2ccc(C#N)cc2)ncc1/C=C\CNC(=O)CCNC(=O)/C=C/CN(C)C [Compound 7-95] | > 1 | > 1 | 0.01 to 0.1 |  | 
12 | CCCNc1nc(Nc2ccc(C#N)cc2)ncc1/C=C\CNC(=O)CCCNC(=O)/C=C/CN(C)C [Compound 7-96] | > 1 | 0.1 to 1 | 0.01 to 0.1 |  | 
13 | CCCNc1nc(Nc2cccc(F)c2)ncc1C#Cc1cccc(NC(=O)[C@H](C)N(C)C(=O)/C=C/CN(C)C)c1 [Compound 8-1, (S,E)-4-(dimethylamino)-N-(1-((3-((2-((3-fluorophenyl)amino)-4-(propylamino)pyrimidin-5-yl)ethynyl)phenyl)amino)-1-oxopropan-2-yl)-N-methyl-2-butenamide] | < 0.01 | < 0.01 | < 0.01 |  | 
14 | CCCNc1nc(Nc2ccc(C(N)=O)cc2)ncc1C#Cc1cccc(NC(=O)[C@H](C)N(C)C(=O)/C=C/CN(C)C)c1 [Compound 8-2, (S,E)-4-((5-((3-(2-(4-(Dimethylamino)-N-methyl-2-butenamido)propanamido)phenyl)ethynyl)-4-(propylamino)pyrimidin-2-yl)amino)benzamide] | < 0.01 | < 0.01 | < 0.01 |  | 
15 | C=CC(=O)NCC(=O)Nc1cccc(C#Cc2cnc(Nc3ccc(C(N)=O)cc3)nc2NCCC)c1 [Compound 8-3] | 0.01 to 0.1 | < 0.01 | < 0.01 |  | 
16 | CCCNc1nc(Nc2ccc(C(N)=O)cc2)ncc1C#Cc1ccc(NC(=O)CNC(=O)/C=C/CN(C)C)cc1 [Compound 8-4] | 0.01 to 0.1 | 0.01 to 0.1 | < 0.01 |  | 
17 | CCCNc1nc(Nc2ccc(C(N)=O)cc2)ncc1C#Cc1cccc(NCCNC(=O)/C=C/CN(C)C)c1 [Compound 8-5] | 0.01 to 0.1 | 0.01 to 0.1 | < 0.01 |  | 
18 | CCCNc1nc(NCCc2ccncc2)ncc1C#Cc1cccc(NC(=O)[C@H](C)N(C)C(=O)/C=C/CN(C)C)c1 [Compound 8-6] | < 0.01 | < 0.01 | < 0.01 |  | 
19 | CCCNc1nc(Nc2cccc(F)c2)ncc1C#Cc1cc(NC(=O)[C@H](C)N(C)C(=O)/C=C/CN(C)C)ccc1F [Compound 8-7] | 0.01 to 0.1 | < 0.01 | < 0.01 |  | 
20 | CCCNc1nc(Nc2ccc(C(N)=O)cc2)ncc1C#Cc1ccc2nc(CNC(=O)/C=C/CN(C)C)[nH]c2c1 [Compound 8-9] | 0.01 to 0.1 | 0.01 to 0.1 | < 0.01 |  | 
21 | CCCNc1nc(Nc2ccc(C(N)=O)cc2)ncc1C#CCCCNC(C)(C)CNC(=O)/C=C/CN(C)C [Compound 8-10] | 0.01 to 0.1 | < 0.01 | < 0.01 |  | 
22 | CCCNc1nc(Nc2ccc(C#N)cc2)ncc1C#CCCCNC(C)(C)CN(C)C(=O)/C=C/CN(C)C [Compound 8-11] | < 0.01 | < 0.01 | < 0.01 |  | 
23 | CCCNc1nc(Nc2ccc(C(N)=O)cc2)ncc1C#CCCCNC1(CNC(=O)/C=C/CN(C)C)CCOCC1 [Compound 8-12] | 0.01 to 0.1 | 0.01 to 0.1 | < 0.01 |  | 
24 | CCCNc1nc(Nc2ccc(C(N)=O)cc2)ncc1C#CCCCNC(CCOC)(CCOC)CNC(=O)/C=C/CN(C)C [Compound 8-13] | 0.01 to 0.1 | 0.01 to 0.1 | < 0.01 |  | 
25 | CCCNc1nc(Nc2ccc(C(N)=O)cc2)ncc1C#Cc1cccc(NC(=O)[C@H](C)N(C)C(=O)/C=C/CN(C)C)c1 [Compound 8-14] |  |  | < 0.01 | 0.01 to 0.1 | < 0.01
26 | CCCNc1nc(Nc2cccc(F)c2)ncc1C#CCCCNC(=O)[C@@H]1CCCN1C(=O)/C=C/CN(C)C [Compound 8-15] |  |  | 0.01 to 0.1 | 0.1 to 1 | 0.1 to 1
27 | CCCNc1nc(Nc2ccc(C#N)cc2)ncc1C#CCCC(=O)NC(C)(C)CN(C)C(=O)/C=C/CN(C)C [Compound 8-16] | 0.1 to 1 | 0.01 to 0.1 | 0.01 to 0.1 |  | 
28 | C[C@@H](C(=O)Nc1cccc(C#Cc2cnc(Nc3ccc(C#N)cc3)nc2NC2CC2)n1)N(C)C(=O)/C=C/CN(C)C [Compound 8-18] | 0.01 to 0.1 | 0.01 to 0.1 | < 0.01 |  | 
29 | CCCNc1nc(Nc2ccc(C#N)cc2)ncc1C#Cc1cccc(NC(=O)[C@H](C)N(C)C(=O)/C=C/CN(C)C)n1 [Compound 8-19] | 0.01 to 0.1 | 0.01 to 0.1 | < 0.01 |  | 
30 | CCCNc1nc(Nc2cccc(F)c2)ncc1C#Cc1cccc(NC(=O)[C@H](C)N(C)C(=O)/C=C/CN(C)C)n1 [Compound 8-20] | 0.1 to 1 | 0.01 to 0.1 | 0.01 to 0.1 |  | 
